The numbers were not newly measured in patent US20260199282A1, “METHODS AND COMPOSITIONS FOR IMPROVING DRIVING PERFORMANCE” (priority 2022, published 2026), which cites them from elsewhere.

Structures are written as SMILES.

This series concerns patients with narcolepsy or idiopathic hypersomnia. The note with it: modafinil 400 mg/day; ~1.5 hours post-dose; cited from earlier work.

For `NC(=O)C[S+]([O-])C(c1ccccc1)c1ccccc1` (stereo not shown) [modafinil], the “mean SDLP” value is reported as 23.6±0.6 cm.
